Source: patent US12187701B2, “Taire family kinase inhibitors and uses thereof” (Dana-Farber Cancer Institute, Inc., priority 2018, dated 2025)
Like-named read-outs stand apart in the source and are kept apart here.

Key:
Cdk14/CycY = Cdk14/CycY (Homo sapiens (Human), UniProt O94921); assay: Lanthascreen Eu kinase binding assay for Cdk14/CycY with 30 minute pre-incubation; details: 30 minute pre-incubation of kinase with compound
Description: Lanthascreen Eu kinase binding assays were conducted for Cdk14/CycY largely as performed in the commercial assay service by Life Technologies, but included a 30 minute pre-incubation step of the kinase with candidate compounds to facilitate covalent bond formation.

HCT116 cells = assay: Antiproliferation assay, Cell Titer Glo, 72 hours; assay type: cell-based
How it was run: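 Luminescent CellTiter-Glo read-out after 72 h compound exposure (four-fold dilutions, 37 °C, 5% CO2) of HCT116 cells plated at 750 cells/well in McCoy's 5A + 10% FBS. Biological quadruplicates; IC50 from non-linear curve fitting.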

Cdk14 [1] = biological target: T1, Cdk14 (Homo sapiens (Human), UniProt O94921); assay: Cdk14 33P kinase assay (Reaction Biology Corp.); assay type: biochemical
Target sequence in this assay (O94921 whole entry, looked up): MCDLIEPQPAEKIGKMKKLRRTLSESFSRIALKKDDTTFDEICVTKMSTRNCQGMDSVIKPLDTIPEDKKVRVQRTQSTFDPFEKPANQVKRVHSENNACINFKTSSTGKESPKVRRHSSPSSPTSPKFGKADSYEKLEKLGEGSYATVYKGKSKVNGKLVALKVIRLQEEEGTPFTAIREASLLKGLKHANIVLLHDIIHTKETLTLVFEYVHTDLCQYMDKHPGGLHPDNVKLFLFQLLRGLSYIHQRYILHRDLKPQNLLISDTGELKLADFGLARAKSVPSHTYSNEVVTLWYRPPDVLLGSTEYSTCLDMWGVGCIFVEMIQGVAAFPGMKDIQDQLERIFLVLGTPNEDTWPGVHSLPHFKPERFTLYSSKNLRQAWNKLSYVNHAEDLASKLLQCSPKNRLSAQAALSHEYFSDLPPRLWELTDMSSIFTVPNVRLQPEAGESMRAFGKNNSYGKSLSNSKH
Target sequence in this assay (Q8ND76 whole entry partner, looked up): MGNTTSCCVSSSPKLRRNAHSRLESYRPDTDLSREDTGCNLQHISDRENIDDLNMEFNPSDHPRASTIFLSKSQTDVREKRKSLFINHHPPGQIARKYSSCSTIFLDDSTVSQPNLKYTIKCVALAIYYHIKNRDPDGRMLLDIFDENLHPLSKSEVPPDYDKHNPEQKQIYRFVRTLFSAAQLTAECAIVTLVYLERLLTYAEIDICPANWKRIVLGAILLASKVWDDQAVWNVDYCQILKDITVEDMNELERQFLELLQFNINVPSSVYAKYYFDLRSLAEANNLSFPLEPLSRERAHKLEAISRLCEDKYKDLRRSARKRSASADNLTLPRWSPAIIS

Cdk14 [2] = biological target: T1, Cdk14; assay: Cellular pull down with biotinylated probe, CDK14; assay type: cell-based; details: HEK293 cells overexpressing Cdk14-flag, 4 hours treatment; for Cellular Potency by Pulldown: some cells print Y or N instead of a concentration;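 on all read-outs here: biotinylated probe used at 1 µM in lysates overnight at 4 °C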
Description: HEK293 cells overexpressing a Cdk14-flag fusion protein were treated with candidate compounds for 4 hours. Cells were washed with PBS, harvested and lysed in Pierce IP buffer with protease and phosphatase inhibitors (Roche). […] To enhance pulldown, lysates were incubated at room temperature for an additional 2 hours. […] Beads were then washed 3 times with Pierce IP buffer, then boiled at 95° C. for 5 minutes in 2× LDS+10% β-mercaptoethanol. Proteins of interest engaged by the biotinylated compound were then assessed using western blotting.
Target sequence in this assay (O94921 whole entry): as the sequence (O94921 whole entry, looked up) above

CDK16/CycY = CDK16/CycY (Homo sapiens (Human), UniProt Q00536); assay: Lanthascreen Eu kinase binding assay for CDK16/CycY
Sequence of CDK16/CycY (Q00536 whole entry): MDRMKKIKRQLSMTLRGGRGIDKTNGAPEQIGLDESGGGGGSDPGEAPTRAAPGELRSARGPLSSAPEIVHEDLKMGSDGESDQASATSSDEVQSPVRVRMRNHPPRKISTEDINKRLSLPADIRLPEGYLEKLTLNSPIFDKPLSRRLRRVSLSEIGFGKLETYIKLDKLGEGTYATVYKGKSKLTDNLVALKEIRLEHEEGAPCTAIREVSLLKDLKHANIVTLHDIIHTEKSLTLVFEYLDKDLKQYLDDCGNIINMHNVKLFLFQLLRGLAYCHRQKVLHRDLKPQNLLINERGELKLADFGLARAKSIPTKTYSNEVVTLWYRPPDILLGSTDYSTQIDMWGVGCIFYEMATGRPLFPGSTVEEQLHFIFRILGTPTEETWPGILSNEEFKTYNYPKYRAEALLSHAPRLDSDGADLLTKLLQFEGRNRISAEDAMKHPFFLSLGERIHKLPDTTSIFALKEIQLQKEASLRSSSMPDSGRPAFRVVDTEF
Sequence of CDK16/CycY (Q8ND76 whole entry partner): as the sequence (Q8ND76 whole entry partner, looked up) above
Description: Lanthascreen Eu kinase binding assays were conducted for CDK16/CycY at Life Technologies.

CDK2/CycA = CDK2/CycA (Homo sapiens (Human), UniProt P24941); assay: Z'LYTE kinase assay for CDK2/CycA at Km ATP; assay type: biochemical
CDK12 = CDK12 (Homo sapiens (Human), UniProt Q9NYV4); assay: Cellular pull down with biotinylated probe, CDK12; assay type: cell-based; details: HEK293 cells, 4 hours treatment; Y/N/slight
Sequence of CDK12 (Q9NYV4 whole entry, the tested form may be a part): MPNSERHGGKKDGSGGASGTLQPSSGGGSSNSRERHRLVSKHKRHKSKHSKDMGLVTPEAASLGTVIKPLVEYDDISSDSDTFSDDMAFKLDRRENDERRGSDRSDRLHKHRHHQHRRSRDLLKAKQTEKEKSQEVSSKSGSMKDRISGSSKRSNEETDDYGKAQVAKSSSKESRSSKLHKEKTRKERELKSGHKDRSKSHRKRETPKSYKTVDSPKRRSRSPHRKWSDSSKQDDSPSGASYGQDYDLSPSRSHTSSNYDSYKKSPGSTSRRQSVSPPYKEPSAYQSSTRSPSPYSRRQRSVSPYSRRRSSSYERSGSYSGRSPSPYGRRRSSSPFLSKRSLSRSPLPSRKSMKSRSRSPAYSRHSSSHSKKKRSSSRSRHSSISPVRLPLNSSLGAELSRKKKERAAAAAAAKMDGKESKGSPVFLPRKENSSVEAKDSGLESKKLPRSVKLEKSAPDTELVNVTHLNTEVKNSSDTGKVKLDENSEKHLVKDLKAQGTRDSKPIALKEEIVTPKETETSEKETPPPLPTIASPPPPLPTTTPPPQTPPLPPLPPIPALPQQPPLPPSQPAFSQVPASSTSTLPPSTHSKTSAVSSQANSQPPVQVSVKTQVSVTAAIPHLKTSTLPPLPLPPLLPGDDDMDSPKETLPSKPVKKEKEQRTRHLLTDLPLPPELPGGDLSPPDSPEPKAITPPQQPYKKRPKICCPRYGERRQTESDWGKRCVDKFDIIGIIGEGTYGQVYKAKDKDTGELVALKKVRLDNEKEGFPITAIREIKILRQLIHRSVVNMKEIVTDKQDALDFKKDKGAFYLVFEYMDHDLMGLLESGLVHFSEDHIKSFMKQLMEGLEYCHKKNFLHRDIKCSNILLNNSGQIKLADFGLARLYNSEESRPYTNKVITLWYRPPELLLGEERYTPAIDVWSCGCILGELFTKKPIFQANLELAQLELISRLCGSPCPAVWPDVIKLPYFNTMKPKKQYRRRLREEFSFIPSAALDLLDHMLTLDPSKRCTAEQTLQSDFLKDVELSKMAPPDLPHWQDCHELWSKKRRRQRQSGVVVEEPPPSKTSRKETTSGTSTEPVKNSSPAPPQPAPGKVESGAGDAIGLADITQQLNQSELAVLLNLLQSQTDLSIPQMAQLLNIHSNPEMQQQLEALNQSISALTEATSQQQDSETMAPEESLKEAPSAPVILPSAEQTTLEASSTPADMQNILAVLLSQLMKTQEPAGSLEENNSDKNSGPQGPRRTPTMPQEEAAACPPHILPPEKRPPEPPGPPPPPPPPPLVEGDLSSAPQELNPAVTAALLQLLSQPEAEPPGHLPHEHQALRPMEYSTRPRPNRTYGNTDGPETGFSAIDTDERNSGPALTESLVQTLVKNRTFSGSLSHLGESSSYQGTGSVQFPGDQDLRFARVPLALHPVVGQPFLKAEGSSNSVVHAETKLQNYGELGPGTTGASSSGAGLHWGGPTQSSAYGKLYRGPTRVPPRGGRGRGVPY
Description: HEK293 cells overexpressing a Cdk14-flag fusion protein were treated with candidate compounds for 4 hours. Cells were washed with PBS, harvested and lysed in Pierce IP buffer with protease and phosphatase inhibitors (Roche). […] To enhance pulldown, lysates were incubated at room temperature for an additional 2 hours. Lysates were then incubated with streptavidin agarose (Thermo scientific, cat. #20349) for 2 hours at 4° C. Beads were then washed 3 times with Pierce IP buffer, then boiled at 95° C. for 5 minutes in 2× LDS+10% β-mercaptoethanol. Proteins of interest engaged by the biotinylated compound were then assessed using western blotting. The results of the cellular pulldown protocol are provided in Tables 1 and 2A, 2B, 2C, and 2D below (Columns titled “CDK2 pulldown,” “CDK9 pulldown,” “CDK12 pulldown blocked,” “CDK14 pulldown blocked,” and “Cellular Potency Pulldown.”)

Cdk14 [3] = biological target: T1, Cdk14; assay: Protein labeling and mass spectrometry analysis of recombinant Cdk14; assay type: binding; details: 10-fold molar excess of compound, 2 hours, room temperature
Target sequence in this assay (O94921 whole entry): as the sequence (O94921 whole entry, looked up) above
Description: For each analysis, 5 μg protein was injected onto a self-packed reversed phase column ( 1/32″ O.D.×500 um I.D., 5 cm of POROS 50R2 resin). After desalting for four minutes, protein was eluted with an HPLC gradient (0-100% B in 4 minutes, A=0.2M acetic acid in water, B=0.2 M acetic acid in acetonitrile, flow rate=10 μL/min) into an LTQ ion trap mass spectrometer (ThermoFisher). […] After reconstituting in 50% acetonitrile, 1% formic acid, 100 mM ammonium acetate, peptides were analyzed by CE-MS using a ZipChip CE system and autosampler interfaced to a QExactive HF mass spectrometer.^7 (ThermoFisher Scientific, San Jose, CA). Peptide solution was loaded for 30 seconds and separation performed at 500 V/cm on an HR chip for 10 minutes with a background electrolyte consisting of 1% formic acid in 50% acetonitrile. Pressure assist was utilized and started at 1 minute. The mass spectrometer was operated in data dependent mode and subjected the 5 most abundant ions in each MS scan (60 k resolution, 1E6 target, lock mass enabled) to MS/MS (15 k resolution, 2E5 target, 100 ms max inject time). Dynamic exclusion was enabled with a repeat count of 1 and an exclusion time of 6 seconds. MS/MS data was extracted to .mgf using mulitplierz scripts^8,9 and searched against a forward-reverse human NCBI refseq database using Mascot version 2.2. […]

[4] = read-out: IC50 CDK14 binding by Lanthascreen
[5] = read-out: IC50 CDK16 Lanthascreen binding
[6] = read-out: IC50 CDK2 Z′LYTE kinase assay

Sequence of Cdk14/CycY (O94921 whole entry): as the sequence (O94921 whole entry, looked up) above
Sequence of Cdk14/CycY (Q8ND76 whole entry partner): as the sequence (Q8ND76 whole entry partner, looked up) above

SMILES	IC50 (Cdk14/CycY; [4]) [nM]	IC50 (HCT116 cells; Homo sapiens, HCT-116, 72 h) [nM]	IC50 (Cdk14 [1]) [nM]	Cellular Potency by Pulldown (Cdk14 [2]) [nM]	IC50 (CDK16/CycY; [5]) [nM]	IC50 (CDK2/CycA; [6]) [nM]	IC50 (Cdk14/CycY; read-out: CDK14 IC50 (nM) LanthaScreen) [nM]	IC50 (HCT116 cells) [nM]	CDK14 pulldown blocked (Cdk14 [2]) [nM]	IC50 (CDK16/CycY; read-out: CDK16 IC50) [nM]	IC50 (CDK2/CycA; read-out: CDK2 IC50) [nM]	CDK12 pulldown blocked (CDK12)	MS labeling of CDK14* (Cdk14 [3]) [%]
CN(C)C/C=C/C(=O)Nc1ccc(S(=O)(=O)N2CCC(NC(=O)c3n[nH]cc3NC(=O)c3c(Cl)cccc3Cl)CC2)cc1 [FMF-03-197-2, (E)-4-(2,6-dichlorobenzamido)-N-(1-((4-(4-(dimethylamino)but-2-enamido)phenyl)sulfonyl)piperidin-4-yl)-1H-pyrazole-3-carboxamide]	2.6	23	42.8	–	1.2	2.8	–	–	–	–	–	–	–
CN(C)C/C=C/C(=O)Nc1cccc(C(=O)Nc2ccc(NC(=O)c3n[nH]cc3NC(=O)c3c(Cl)cccc3Cl)cc2)c1 [FMF-03-206-1, (E)-4-(2,6-dichlorobenzamido)-N-(4-(3-(4-(dimethylamino)but-2-enamido)benzamido)phenyl)-1H-pyrazole-3-carboxamide]	17	37	342	1000	56.8	22.4	–	–	–	–	–	–	–
CN(C)C/C=C/C(=O)Nc1ccc(C(=O)Nc2ccc(NC(=O)c3n[nH]cc3NC(=O)c3c(Cl)cccc3Cl)cc2)cc1 [FMF-04-012-2, (E)-4-(2,6-dichlorobenzamido)-N-(4-(4-(4-(dimethylamino)but-2-enamido)benzamido)phenyl)-1H-pyrazole-3-carboxamide]	68	14	560	–	111	52.8	–	–	–	–	–	–	–
C=CC(=O)Nc1cccc(S(=O)(=O)N2CCC(NC(=O)c3n[nH]cc3NC(=O)c3c(F)cc(F)cc3F)CC2)c1 [FMF-04-095-1, N-(1-((3-acrylamidophenyl)sulfonyl)piperidin-4-yl)-4-(2,4,6-trifluorobenzamido)-1H-pyrazole-3-carboxamide]	122	7	> 1000	–	–	7.5	–	–	–	–	–	–	–
CN(C)C/C=C/C(=O)Nc1cccc(S(=O)(=O)N2CCC(NC(=O)c3n[nH]cc3NC(=O)c3c(F)cc(F)cc3F)CC2)c1 [FMF-04-095-2, (E)-N-(1-((3-(4-(dimethylamino)but-2-enamido)phenyl)sulfonyl)piperidin-4-yl)-4-(2,4,6-trifluorobenzamido)-1H-pyrazole-3-carboxamide]	10.2	90	380	500	5.2	3.7	–	–	–	–	–	–	–
CN(C)C/C=C/C(=O)Nc1cccc(S(=O)(=O)N2CCC(NC(=O)c3n[nH]cc3NC(=O)c3c(F)cccc3F)CC2)c1 [FMF-04-096-2, (E)-4-(2,6-difluorobenzamido)-N-(1-((3-(4-(dimethylamino)but-2-enamido)phenyl)sulfonyl)piperidin-4-yl)-1H-pyrazole-3-carboxamide]	3.4	157	268	250	2.6	2.6	–	–	–	–	–	–	–
C=CC(=O)Nc1cccc(S(=O)(=O)N2CCC(NC(=O)c3n[nH]cc3NC(=O)c3c(Cl)cc(Cl)cc3Cl)CC2)c1 [FMF-04-159-1, N-(1-((3-acrylamidophenyl)sulfonyl)piperidin-4-yl)-4-(2,4,6-trichlorobenzamido)-1H-pyrazole-3-carboxamide]	49	25	1050	500	46.6	20.6	–	–	–	–	–	–	–
CN(C)C/C=C/C(=O)Nc1cccc(S(=O)(=O)N2CCC(NC(=O)c3n[nH]cc3NC(=O)c3c(Cl)cc(Cl)cc3Cl)CC2)c1 [FMF-04-159-2, (E)-N-(1-((3-(4-(dimethylamino)but-2-enamido)phenyl)sulfonyl)piperidin-4-yl)-4-(2,4,6-trichlorobenzamido)-1H-pyrazole-3-carboxamide]	47	450	718	500	8.2	10.1	46.6	450	500	10.1	8.2	slight	100

Second part, led by results:

IC50 (Cdk14/CycY; [4]) [nM]	IC50 (HCT116 cells; Homo sapiens, HCT-116, 72 h) [nM]	IC50 (Cdk14 [1]) [nM]	Cellular Potency by Pulldown (Cdk14 [2]) [nM]	IC50 (CDK16/CycY; [5]) [nM]	IC50 (CDK2/CycA; [6]) [nM]	SMILES	IC50 (Cdk14/CycY; read-out: CDK14 IC50 (nM) LanthaScreen) [nM]	IC50 (HCT116 cells) [nM]	CDK14 pulldown blocked (Cdk14 [2]) [nM]	IC50 (CDK16/CycY; read-out: CDK16 IC50) [nM]	IC50 (CDK2/CycA; read-out: CDK2 IC50) [nM]	CDK12 pulldown blocked (CDK12)	MS labeling of CDK14* (Cdk14 [3]) [%]
45	32	36.5	1000	11.4	3.4	C=CC(=O)Nc1cccc(C(=O)N2CCC(NC(=O)c3n[nH]cc3NC(=O)c3c(Cl)cccc3Cl)CC2)c1 [FMF-03-196-1, N-(1-(3-acrylamidobenzoyl)piperidin-4-yl)-4-(2,6-dichlorobenzamido)-1H-pyrazole-3-carboxamide]	–	–	–	–	–	–	–
14	2.6	786	–	18.2	24	CN(C)C/C=C/C(=O)Nc1ccc(CN2CCC(NC(=O)c3n[nH]cc3NC(=O)c3c(Cl)cccc3Cl)CC2)cc1 [FMF-03-199-2, (E)-4-(2,6-dichlorobenzamido)-N-(1-(4-(4-(dimethylamino)but-2-enamido)benzyl)piperidin-4-yl)-1H-pyrazole-3-carboxamide]	–	–	–	–	–	–	–
> 1000	174	238	250	2.8	3.7	COc1cccc(F)c1C(=O)Nc1c[nH]nc1C(=O)NC1CCN(S(=O)(=O)c2cccc(NC(=O)/C=C/CN(C)C)c2)CC1 [FMF-04-097-2, (E)-N-(1-((3-(4-(dimethylamino)but-2-enamido)phenyl)sulfonyl)piperidin-4-yl)-4-(2-fluoro-6-methoxybenzamido)-1H-pyrazole-3-carboxamide]	–	–	–	–	–	–	–
64	7	1470	500	120	165	C=CC(=O)Nc1cccc(CN2CCC(NC(=O)c3n[nH]cc3NC(=O)c3c(F)cccc3F)CC2)c1 [FMF-04-160-1, N-(1-(3-acrylamidobenzyl)piperidin-4-yl)-4-(2,6-difluorobenzamido)-1H-pyrazole-3-carboxamide]	–	–	–	–	–	–	–
11	9	557	100	12.8	50.2	C=CC(=O)Nc1cccc(CN2CCC(NC(=O)c3n[nH]cc3NC(=O)c3c(Cl)cccc3OC)CC2)c1 [FMF-04-161-1, N-(1-(3-acrylamidobenzyl)piperidin-4-yl)-4-(2-chloro-6-methoxybenzamido)-1H-pyrazole-3-carboxamide]	–	–	–	–	–	–	–
–	102	–	1000	2.91	2.95	CCOc1cccc(Cl)c1C(=O)Nc1c[nH]nc1C(=O)NC1CCN(S(=O)(=O)c2cccc(NC(=O)/C=C/CN(C)C)c2)CC1 [FMF-05-118-1, (E)-4-(2-chloro-6-ethoxybenzamido)-N-(1-((3-(4-(dimethylamino)but-2-enamido)phenyl)sulfonyl)piperidin-4-yl)-1H-pyrazole-3-carboxamide]	–	–	1000	2.9	2.9	–	50
